Measured values from patent US20100143250A1, “COMPOUNDS FOR THE DIAGNOSIS OF APOPTOSIS” (priority 2007, published 2010).
pIC50, pKd: −log10 of the molar value. Ends that are not written are not given here.

Columns and labels:
mouse apoptotic liver = test: MRI of apoptotic liver in the mouse (anti-Fas antibody induced); assay type: in vivo, Balb/c mice
Protocol: The targeting effectiveness of the Gd-DTPA-LIKKPF product by MRI was also evaluated on a model of apoptotic liver in the mouse. The apoptosis is induced by means of an i.v. injection (caudal vein) of anti-Fas monoclonal antibody in anesthetized Balb/c mice (Blankenberg et al., 1998, 1999; Rodriguez et al., 1996).
Before the MRI acquisition, the mice are anesthetized with pentobarbital. The experiments are carried out using a 200 MHz Bruker spectrometer (4.7 T) equipped with a vertical magnet and with a mini-imaging system. […] The signal intensity (SI) is measured in the liver. The SI value is also measured in a tube filled with a 2% aqueous solution of gelatin enriched with 50 μM Gd-DTPA, used as a reference product, in a region outside the image of the mouse which corresponds to the background noise. […]
For the two models, the SI values are measured in various regions of interest (at the level of the arterial wall of the abdominal aorta or whole liver) using the OSIRIS image analysis software. […] The SI value is measured on all the image slices where the arterial wall and the liver are visible. […] The % ΔSNR is calculated according to the following equation:
% ΔSNR=[(SIpost/SDnoise)−(SIpre/SDnoise)]/[SIpre/SDnoise]×100 where SDnoise is the standard deviation of the noise measured on a region outside the animal.

[1] = Relaxivity measurements (r1, r2) in aqueous solution; assay type: physicochemical
Protocol: The relaxation times T1 and T2 were determined by standard procedures on a Minispec 120 instrument (Bruker) at 20 MHz (0.47T) and 37° C. The longitudinal relaxation time T1 is measured using an inversion-recovery sequence and the transverse relaxation time T2 is measured using a CPMG technique.
The relaxation rates R1 (=1/T1) and R2 (=1/T2) were calculated for various concentrations of total metal (ranging from 0.1×10^−3 to 1×10^−3 mol/l) in an aqueous solution at 37° C. The correlation between R1 or R2 as a function of the concentration is linear, and the slope represents the relaxivity r1 (R1/C) or r2 (R2/C) expressed as (1/second)×(1/mmol/l), i.e. (s^−1.mM^−1).

[2] = Interaction of USPIO-LIKKPF with immobilized PS, iron assayed with Prussian blue; assay type: binding; conditions: 2 hours at 37° C., read-out: K*d value
Protocol: The affinity of the USPIO-LIKKPF is measured on immobilized PS (120 μg/ml). After saturation of the nonspecific sites, the USPIO-LIKKPF is incubated at increasing concentrations (122 nM-4 mM with respect to iron) for 2 hours at 37° C. After washing of the wells, the molecules bound to the PS are digested in one volume of 5N HCl. The samples are digested in one volume of 5N HCl, for 48 h at 37° C., and the iron is assayed using Prussian blue (OD630).

[3] = system: dopaminergic neurons treated with MPP+; test: MRI detection in cell culture, healthy cells vs cells treated with MPP+; assay type: cell-based, rat
Protocol: (§1) MRI studies were carried out on C57BI/6 mice treated with MPTP (or its metabolite MPP+ for cell cultures), a neurotoxin which induces a “parkinsonien” syndrome.
In cell culture, the death of dopaminergic neurons by apoptosis was verified using rat brains, by immunohistochemistry and detection of caspase 3 enzyme activity. For the MRI detection in cell culture, the healthy cells and cells treated with MPP+ were brought into contact with USPIO-LIKKPF.

apoptotic Jurkat cells = test: In vitro MRI on apoptotic or control Jurkat cells preincubated with USPIO; assay type: cell-based
Protocol: The in vitro MRI is carried out on apoptotic (or control) cells preincubated with the USPIO-LIKKPF or unfunctionalized USPIO (3 or 4 mM with respect to iron) for 2 hours at 37° C. Jurkat cell apoptosis is induced by a treatment with 2 μM camptothecin for 24 hours. After incubation with the USPIO, the labeled cells are transferred into a 0.2% gelatin solution for analysis by MRI (Bruker Avance-200, 4.7 T, TR/TE=3000/20 ms, 30 echos, matrix=256×256, FOV=4 cm, slice thickness=1 mm) in ELISA plate wells.

[4] = Annexin V competition assay for the interaction of USPIO-LIKKPF with PS; assay type: binding; conditions: FIG. 3
[5] = system: apoptotic nervous tissues; test: MRI of mice treated with MPTP (model of Parkinson's disease); assay type: in vivo; conditions: 4th, 5th, 6th day of treatment, one and three weeks after
Protocol: In a model of Parkinson's disease, with the injection of USPIO-LIKKPF product (product of example 1)
as §1
The diseased and healthy mice were studied on the 4th, 5th and 6th day of treatment, and one and three weeks after the end of the treatment with MPTP. […] The MRI localization of the diseased regions corresponds to the regions containing dopaminergic neurons (immunohistochemistry: detection of dopaminergic neurons by measuring tyrosine hydroxylase in the central gray nuclei).

[6] = Annexin V competition assay for peptide LIKKPF on immobilized PS (ELISA plate); assay type: binding; conditions: interaction of peptide LIKKPF with PS, FIG. 1
Protocol: The affinity of the peptide LIKKPF (SEQ ID No 11) is measured on immobilized PS (ELISA plate). […] Incubation at 37° C. is sustained for 1.5 hours. The bound annexin V is detected by adding a solution of streptavidin-HRP, and then a solution of ABTS substrate containing 0.05% of H2O2. The OD405 is measured in order to calculate the IC50 value of the peptide.

O=C([O-])CN(CCN(CC(=O)[O-])CC(=O)O)CCN(CC(=O)[O-])CC(=O)O.[Gd+3] [Gd-DTPA, reference compound]
MRI signal enhancement in the healthy mouse (mouse apoptotic liver; healthy mouse): only a partial signal enhancement

Leu-Ile-Lys-Lys-Pro-Phe-OH (LIKKPF-OH)
effect of preinjection on the enhancement caused by Gd-DTPA-LIKKPF (mouse apoptotic liver; peptide preinjected at 100 μmol/kg, apoptotic liver): blocks the enhancement caused by the Gd-DTPA-LIKKPF

Peptide No. 1-DTPAGd: Bz-NCS-DTPA condensed with peptide Asp-Ala-His-Ser-Phe-SerOH, complexed with gadolinium (DAHSFS; Bz-NCS-DTPA-Gd conjugate; printed: Asp-Ala-His-Ser-Phe-Ser)
Relaxivities measured at 20 MHz (37° C.) [1]: 6.8 s⁻¹ mM⁻¹

Peptide No. 3-DTPAGd: Bz-NCS-DTPA condensed with peptide Pro-Gly-Asp-Leu-Ser-Arg-OH, complexed with gadolinium (PGDLSR; Bz-NCS-DTPA-Gd conjugate; printed: Pro-Gly-Asp-Leu-Ser-Arg-)
Relaxivities measured at 20 MHz (37° C.) [1]: 6.7 s⁻¹ mM⁻¹

USPIO-LIKKPF: USPIO-PEG-PEPTIDE P contrast product with PEPTIDE P being LIKKPF; product of example 1, PEG size not stated (also: coupled to USPIO nanoparticle via PEG linker, site not given here)
pKd [2]: 7.11 | MRI signal of diseased vs healthy cells [3]: diseased cells show a darker signal than the others | uptake of contrast agent (standardized relaxation rate and iron concentration) [3]: diseased cells have taken up a larger amount of vectorized contrast agent | binding to apoptotic cells by MRI (signal intensity vs control cells) (apoptotic Jurkat cells; Jurkat cells, 2 μM camptothecin 24 hours, 3 or 4 mM iron, 2 hours at 37° C.): binds specifically to the apoptotic cells | decrease in MRI signal induced by incubation, vs unfunctionalized USPIO (apoptotic Jurkat cells; apoptotic cells, 3 mM and 4 mM Fe, FIG. 4): greater than that recorded with the unfunctionalized USPIO | pIC50 [4]: 6.38 | targeting of diseased regions by MRI [5]: more marked at the 5th day

annexin V: endogenous protein of 35 kDa with high affinity and specificity for PS
pIC50 [6]: 8.97
